Patent US20140023611A1 (priority 2010, published 2014)
Each block holds one molecule with its values, some of them ahead of it.

Legend:
[1] = Stability of compounds in simulated gastric fluid (SGF); type: in vitro ADME; conditions: simulated gastric fluid (3 mg/mL pepsin), incubation time 6 hr, relative to t=0
In short: (§1)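 Compounds at […] were incubated 3 or 6 hr in USP simulated gastric fluid with 3 mg/mL pepsin or simulated intestinal fluid with 3 mg/mL pancreatin. Remaining compound was quantified by HPLC-UV or HPLC-MS peak area % and reported as percent of the t=0 level in the same medium.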

[2] = tested on: NaPi2b; test: Competition with phosphate: Pi uptake assay repeated at 2.1 vs 0.1 mM phosphate; type: cell-based; conditions: potency at 2.1 vs 0.1 mM phosphate
From the text: For example, a phosphate uptake assay can be performed and the IC50 values for a compound at different phosphate concentrations can be determined (e.g., “Enzyme kinetics”, I. Segel, 1975, John-Wiley & Sons, p. 123). IC50 values for non-competitive inhibitors will remain the same or similar with respect to the phosphate concentration, whereas IC50 values for competitive inhibitors will increase (i.e lose potency) as phosphate concentration increases.
To ascertain if an inhibitor was competitive for binding with phosphate, the procedure was repeated, but raising the concentration of the substrate in the assay mixture from 0.1 to 2.1 mM phosphate.

[3] = Determination of compound Cmax and AUC after oral gavage (plasma LC-MS/MS); type: in vivo, Sprague-Dawley rats; conditions: Sprague-Dawley, Structure (I) examples, Table 15, rat, actual oral dose 3-15 mg/kg, plasma 0.5-4 h
In short: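 Sprague-Dawley rats dosed by oral gavage at nominal 2.5 or 10 mg/kg; blood drawn at 0.5, 1, 2 and 4 h into K2EDTA. Plasma protein-precipitated with acetonitrile plus internal standard and analysed by LC-MS/MS against a plasma standard curve to derive Cmax and AUC.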

[4] = Stability of compounds in simulated intestinal fluid (SIF); type: in vitro ADME; conditions: simulated intestinal fluid (3 mg/mL pancreatin), incubation time 6 hr, relative to t=0
In short: as §1

[5] = Fecal recovery of orally administered compounds; type: in vivo, Sprague-Dawley rats; conditions: Structure (I) examples, Table 16; rat, oral gavage, feces collected until 48 hr after dosing
From the text: (§2) The animals were kept in metabolic cages and feces were collected from the time of dosing until 48 hr after dosing. Upon collection, feces were dried by lyophilization and ground to a visually homogenous powder. Duplicate samples of ground feces from each individual animal were weighed out and extracted using organic solvent. […] Extraction conditions were not optimized for individual compounds, and thus may represent a minimal level of recovery.
as §2, with “collection, feces was dried by” for “collection, feces were dried by”
as §2, with “collection, feces was dried by” for “collection, feces were dried by”
The animals were kept in metabolic cages and feces were collected from the time of dosing until 48 hr after dosing. Upon collection, feces was dried by lyophilization and ground to a visually homogenous powder. Duplicate samples of ground feces from each individual animal were weighed out and extracted using organic solvent.

[6] = tested on: Uptake of Phosphorus from the Intestine; test: In vivo co-dosing in chow (urine P out / P consumed); conditions: Rattus norvegicus, feed or water; rats, compound in chow; mean drug dose 101 mg/kg/day; read-out: Mean % inhibition Urine Pout/P consumed
From the text: Male, 7-week-old Sprague-Dawley rats (Charles-River laboratories international, Hollister, Calif.) were allowed to acclimate for a minimum of 3 days. The experiment was initiated by switching animals to a synthetic diet (0.6% phosphorus and 0.6% calcium, Harlan Teklad TD.84122) for four days. After this time, the animals were placed into metabolic cages for daily monitoring of food and water consumption, as well as urine and fecal collections. Test compounds were incorporated into the powdered diet listed above containing 3% chocolate flavoring (w/w, BioServ #7345) at 1.3 mg test compound per gram of diet to achieve an average daily nominal dose of 100 mg/kg/day. The actual dose received by each animal was later determined by measuring prepared diet consumption and body weight. Urine samples were collected in three daily periods from 24-48, 48-72, and 72-96 hours of drug dosing. Averaging these three 24 h periods allows for the more representative measurements of urination, fecal excretion, food consumption and water uptake for each animal. Phosphorus levels in the urine were determined by anion exchange chromatography using a Dionex ICS-3000 ion chromatography system. Urine samples were diluted 1:500 or 1:1000 and injected onto an IonPac AS18 analytical column (2×250 mm) using a potassium hydroxide eluent. Elution of urine phosphate ions was monitored via conductivity detector and reported as ppm relative to a standard ion solution containing phosphate. Daily urinary P output relative to the P consumed in the prepared diet for each animal was calculated. The percentage inhibition of phosphorus absorption was estimated by determining the reduction of this ratio compared to the control group (animals with no drug in chow). The differences between the means of control and treated groups were evaluated by t tests. In all experiments, one group was always included that had Renvela powder blended into their chow at 0.9% targeting a dose of 750 mg/kg.

[7] = tested on: Uptake of Phosphorus from the Intestine; test: In vivo bolus phosphorus challenge; design: species or system rat; conditions: Sprague-Dawley rats on low-phosphorus diet; oral Drug Dose 30, 15 min before phosphate bolus; serum 30 min post bolus
Method: By pretreating animals with a low phosphorus diet followed by the subsequent dosing of a phosphorus bolus, serum phosphorus levels were monitored after 30 minutes as a surrogate for intestinal phosphorus absorption. […] The in vivo bolus phosphorus challenge model used here mimics this model in rats.
Male, 7-week-old Sprague-Dawley rats (Charles-River laboratories international, Hollister, Calif.) were allowed to acclimatize for a minimum of 3 days before switching to a synthetic low-phosphorus diet (TD.85010, Harlan Teklad, Madison, Wis.) which contains 0.1% phosphorus and 0.6% calcium. At day 5, testing compounds or vehicle alone (as indicated) were orally administered at the indicated dose in a volume of 5 ml/kg, followed by a bolus gavage of monobasic sodium phosphate (1 mmol in 1 ml) 15 min after compound dosing. Serum was collected via retroorbital bleeding 30 min post phosphate bolus and phosphate levels were determined utilizing an ACE ALERA blood chemistry analyzer (Alfa Wassermann Diagnostic Technologies, West Caldwell, N.J.).
The extent of inhibition by test compounds on the elevation of serum phosphate levels in response to the bolus of phosphorus is shown in Table 12 (data are expressed as % Inhibition, with 6-10 animals per data point). The differences between groups were evaluated by one-way analysis of variance with Dunnett's post hoc tests.

[8] = target: T1, rat NaP2b (SLC34A2) (Rattus norvegicus, UniProt Q9JJ09); test: Inhibition of NaP2b-mediated Pi (33P) uptake in transfected HEK293 cells, rat NaP2b; type: cell-based; conditions: 33P Pi uptake, 0.1 mM phosphate, value given as pIC50 range
T1 construct: host or cells: HEK293
T1 sequence (Q9JJ09 1-695): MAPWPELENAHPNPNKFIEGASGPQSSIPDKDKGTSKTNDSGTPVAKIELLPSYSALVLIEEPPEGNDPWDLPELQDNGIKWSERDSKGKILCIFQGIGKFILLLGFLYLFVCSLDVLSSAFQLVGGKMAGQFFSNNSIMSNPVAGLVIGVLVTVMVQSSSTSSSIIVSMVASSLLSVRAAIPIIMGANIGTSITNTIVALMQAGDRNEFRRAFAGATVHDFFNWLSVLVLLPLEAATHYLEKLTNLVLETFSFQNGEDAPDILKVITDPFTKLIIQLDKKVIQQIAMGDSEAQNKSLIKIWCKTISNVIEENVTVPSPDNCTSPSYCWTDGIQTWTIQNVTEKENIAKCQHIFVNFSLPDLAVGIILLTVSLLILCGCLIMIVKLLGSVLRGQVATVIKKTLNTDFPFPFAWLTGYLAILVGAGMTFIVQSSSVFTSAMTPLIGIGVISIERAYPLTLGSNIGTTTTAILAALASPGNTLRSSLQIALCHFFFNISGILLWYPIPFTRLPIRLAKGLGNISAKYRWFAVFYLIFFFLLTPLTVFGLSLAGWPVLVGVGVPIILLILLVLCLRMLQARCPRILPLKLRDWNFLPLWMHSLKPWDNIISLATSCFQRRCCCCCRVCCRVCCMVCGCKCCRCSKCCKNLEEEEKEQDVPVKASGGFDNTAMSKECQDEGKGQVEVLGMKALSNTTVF
In short: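 HEK293 cells were transiently transfected with NaP2b cDNA using Lipofectamine and grown near confluence. Compounds were tested at twelve concentrations from 0.1 nM to 30 uM in duplicate, and 33P-phosphate uptake was counted by scintillation after lysis. Results are expressed as pIC50.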

[9] = target: T1, rat NaP2b (SLC34A2); test: NaP2b-mediated Pi transport (33P uptake) in transfected HEK293 cells, rat NaP2b; type: cell-based; conditions: Structure (V) examples, Table 2; rat NaP2b, HEK293; read-out: pIC50 Range (converted)
Method: HEK293 cells were obtained from the American Type Culture collection and propagated per their instructions. Expression clones for rat and human NaP2b (SLC34A2) were obtained from Open Biosystems (Catalog numbers MRN1768-9510282, and MHS1010-99823026, respectively). The sequence of the human protein was mutated to insert a threonine after residue 37, and to introduce a N39D mutation.
(§3) The rate of phosphate (Pi) uptake into HEK293 cells was measured using a modification of the method described by Mohrmann et al. (Mohrmann, I., Mohrmann, M., Biber, J., and Murer, H. (1986) Am. J. Phys. 250(3 Pt 1):G323-30.) Transfected HEK293 cells were treated with a pharmacological agent to minimize endogenous PiT-mediated phosphate transport activity, such that the only remaining sodium-dependent phosphate transport activity is that which was bestowed by introduction of the NaP2b genes.
(§4) Cells were seeded into 96-well plates at 25,000 cells/well and cultured overnight. Lipofectamine 2000 (Invitrogen) was used to introduce the NaP2b cDNA, and the cells were allowed to approach confluence during a second overnight incubation. […] Cells were then overlayed with either choline uptake buffer or sodium uptake buffer (14 mM Tris, 137 mM sodium chloride, 5.4 mM KCl, 2.8 mM CaCl2, 1.2 mM MgSO4, 100 uM KH2PO4, PiT-silencing agent, 1 mg/mL Bovine Serum Albumin, pH 7.4) containing 6-9 uCi/mL ^33P orthophosphoric acid (Perkin Elmer) and test compound. Each compound was tested at twelve concentrations ranging from 0.1 nM to 30 uM. Assays were run in duplicate.
After incubation for 3-30 minutes at room temperature, assay mixtures were removed, and the cells were washed twice with ice cold stop solution (137 mM sodium chloride, 14 mM Tris, pH 7.4). Cells were lysed by addition of 20 μL 0.1% Tween 80 followed by 100 μL scintillation fluid, and counted using a TopCount (Perkin Elmer).
pIC50 (the negative log of the IC50) values of the test compounds were calculated using GraphPad Prism.
HEK293 cells were obtained from the American Type Culture collection and propagated per their instructions. Expression clones for rat and mouse NaP2b (SLC34A2) cDNAs were obtained from Open Biosystems (Catalog numbers MRN1768-9510282 and MMM1013-98478398 respectively).
as §3, with “phosphate” for “phosphate (Pi)”
as §4, with “agent, 0.1% wt/v bovine serum albumin,” for “agent, 1 mg/mL Bovine Serum Albumin,”, “Each compounds” for “Each compound”
After incubation for 3-30 minutes at room temperature, assay mixtures were removed, and the cells were washed twice with ice cold stop solution (137 mM sodium chloride, 14 mM Tris, pH 7.4).

[10] = Stability of compounds in simulated gastric and intestinal fluid; type: in vitro ADME; conditions: Structure (V) examples, Table 3, 3 hr
Method: (§5) Test compounds were incubated at 1-20 μM in simulated gastric fluid (SGF; standard USP solution with 3 mg/mL pepsin) or simulated intestinal fluid (SIF; standard USP solution with 3 mg/mL pancreatin) for 3 hr or 6 hr. HPLC-UV or HPLC-MS were used to determine test compound levels using peak area %. Results (Table 5) were reported as the percentage of test compound remaining after incubation in a given condition relative to test compound present at t=0 in the same condition.
as §5, with “3” for “3 hr or 6”, “3)” for “5)”

SMILES: CN(CCN1CCOCC1)C(=O)c1cccc(C(=O)Nc2ccc(N3CCCCC3)cc2-c2cc(C(=O)N[C@H]3CCCc4ccccc43)ccn2)c1.Cl [Example 37, (S)—N1-Methyl-N1-(2-morpholinoethyl)-N3-(4-(piperidin-1-yl)-2-(4-((1,2,3,4-tetrahydronaphthalen-1-yl)carbamoyl)pyridin-2-yl)phenyl)isophthalamide]
% remaining, SGF [1]: >80%
Competitive with respect to Pi? [2]: No
AUC [3]: < 30 ng·h/mL
Cmax [3]: < 10 ng/mL
% remaining, SIF [4]: >80%
% recovered in feces [5]: <20%
inhibition in vivo at 101 mg/kg/day [6]: ≤ 10%

IC50 [8]: 1000 to 7940 nM
SMILES: O=C(O)CCSCc1cccc(C(=O)Nc2ccc(N3CCCCC3)cc2-c2cc(C(=O)NCc3cc(C(F)(F)F)cc(C(F)(F)F)c3)ccn2)c1 [Example 1.32]
% Inhibition of Serum P elevation [7]: 20-30%

IC50 [9]: 100 to 794 nM
% remaining, SGF ([10]; simulated gastric fluid): 7%
% remaining, SIF ([10]; simulated intestinal fluid): 90%
SMILES: O=C(O)CNC(=O)CCSCc1cccc(C(=O)Nc2ccc(N3CCCCC3)cc2C(=O)N/N=C/c2ccc(Cl)c(C(F)(F)F)c2)c1 [Ex. 50, (E)-2-(3-(3-(2-(2-(4-chloro-3-(trifluoromethyl)benzylidene)hydrazinecarbonyl)-4-(piperidin-1-yl)phenylcarbamoyl)benzylthio)propanamido)acetic acid]
